Data as given in PMC4668926 (Biochemistry, 2015).

Experiments:
[1] = molecular target: T1, KPR (ketopantoate reductase) (Staphylococcus aureus, UniProt A0A0J9X283); assay: FRET titration, Trp167 to bound NADPH; format: binding
T1 sequence (A0A0J9X283 1-286): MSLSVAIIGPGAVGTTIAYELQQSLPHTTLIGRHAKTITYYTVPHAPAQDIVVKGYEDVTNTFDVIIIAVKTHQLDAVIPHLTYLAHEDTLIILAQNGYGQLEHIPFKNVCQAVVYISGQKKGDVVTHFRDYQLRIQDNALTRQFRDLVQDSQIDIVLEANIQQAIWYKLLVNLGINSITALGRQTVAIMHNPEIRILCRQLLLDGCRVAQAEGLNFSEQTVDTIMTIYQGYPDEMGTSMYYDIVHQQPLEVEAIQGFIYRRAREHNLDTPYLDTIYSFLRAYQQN

[2] = molecular target: Staphylococcus aureus ketopantoate reductase (Staphylococcus aureus); assay: AUC

Row | stoichiometry N [2] | Molecule | Kd [1] [nM]
1 |  | NC(=O)C1=CN([C@@H]2O[C@H](COP(=O)(O)OP(=O)(O)OC[C@H]3O[C@@H](n4cnc5c(N)ncnc54)[C@H](OP(=O)(O)O)[C@@H]3O)[C@@H](O)[C@H]2O)C=CC1 [NADPH] | 58 ± 2
2 | 2 | Staphylococcus aureus ketopantoate reductase (enzyme) | 
